The source of these data is US20170119896A1, “TERMINALLY MODIFIED POLYMERS AND CONJUGATES THEREOF” (Mersana Therapeutics, Inc., priority 2012, published 2017).

For this assay, the target named is T1, glucagon-like peptide-1 receptor (GLP1R CHO-K1 Gs overexpressing cells) (Homo sapiens, UniProt P43220).
T1 construct: host or cells: CHO-K1
As to the kind of experiment: DiscoveRx cAMP Hunter express GPCR Assay (cellular cAMP formation). Conditions: 30 min at 37° C., cAMP chemiluminescent signal, four-parameter curve fitting. It is filed as cell-based. The method, then: The activity of terminally modified PHF exendin conjugates were measured using DiscoveRx cAMP Hunter express GPCR Assay which determines the cellular formation of a second messenger such as cAMP. […] It binds to glucagon-like peptide-1 receptor 1-G-protein coupled receptor (GPCR). Following stimulation of this receptor, intracellular signaling pathways are activated that lead to the production of intracellular second messengers, such as cAMP. Free cAMP molecules from cell lysates compete for antibody binding with a labeled enzyme donor (ED)-cAMP conjugate, which contains a small peptide fragment of β-galactosidase. In the absence of free cAMP, the ED-cAMP conjugates are captured by the cAMP-specific antibody and are unavailable for complementation with the enzyme acceptor (EA), resulting in a low signal. In the presence of free cAMP, antibody sites are occupied, allowing the ED-cAMP conjugate to complement with EA, forming an active β-galactosidase enzyme; substrate hydrolysis by this enzyme produces a chemiluminescent signal. The signal generated is in direct proportion to the amount of free cAMP […]. […] Luminescent signal was measured using a SpectraMax M5 plate reader (Molecular Devices). […] EC50 values were determined from four-parameter curve fitting.

T1 sequence (P43220 24-463): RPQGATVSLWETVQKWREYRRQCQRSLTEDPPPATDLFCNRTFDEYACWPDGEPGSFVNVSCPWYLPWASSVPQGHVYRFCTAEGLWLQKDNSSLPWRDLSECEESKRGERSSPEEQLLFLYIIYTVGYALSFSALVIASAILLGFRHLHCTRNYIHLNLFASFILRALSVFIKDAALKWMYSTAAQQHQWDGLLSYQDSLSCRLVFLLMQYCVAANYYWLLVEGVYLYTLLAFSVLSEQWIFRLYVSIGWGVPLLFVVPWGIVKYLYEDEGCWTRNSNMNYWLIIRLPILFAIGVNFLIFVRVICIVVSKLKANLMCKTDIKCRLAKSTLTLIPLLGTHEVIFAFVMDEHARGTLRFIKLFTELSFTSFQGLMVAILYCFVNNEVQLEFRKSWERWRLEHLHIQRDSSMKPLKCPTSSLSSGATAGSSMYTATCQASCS

Broadly, the EC50 is the concentration at which the effect is half-maximal. As to “50 kDa PHF-6-maleimido hexanamide-Exendin-4-Cys (i.e., (Exendin-4-Cys)-(N-(2-maleimido)propanamido)propyl)-ethylamino-50 kDa PHF) [Example 15]”, the response was half-maximal at 1.87 nM (EC50).
